Data: the supplement of paper PMC5579334
± gives the standard deviation of the averaged measurements.

Key:
[1] = test system: HSC2 (primary human Schwann cells); assay: drug sensitivity score (DSS, CellTiter-Glo viability, 72 h) (DSS (dimensionless)); higher = more sensitive; extreme values may be limits of the assay
Procedure, shortened: (§1)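 MPNST cell lines and primary human Schwann cells were seeded at 750–1000 cells per well into 384-well plates preprinted with each compound at five concentrations in 10-fold steps, then incubated 72 h at 37 °C, 5% CO2. CellTiter-Glo ATP luminescence gave viability, scaled between vehicle and positive-control wells, with duplicates averaged where present. Curves were fitted with a four-parameter logistic model. Percent inhibition refers to the top concentration, while drug sensitivity score and relative IC50, censored at the top concentration, come from these fits.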

[2] = test system: HSC1 (primary human Schwann cells); assay: as above
Procedure, shortened: as §1

HS-Sch-2 [3] = assay: as above
Procedure, shortened: as §1

S462 [4] = assay: as above
Procedure, shortened: as §1

STS26T [5] = assay: as above
Procedure, shortened: as §1

S1507-2 [6] = assay: as above
Procedure, shortened: as §1

YST-1 [7] = assay: as above
Procedure, shortened: as §1

HS-PSS [8] = assay: as above
Procedure, shortened: as §1

ST8814 [9] = assay: as above
Procedure, shortened: as §1

[10] = test system: HSC2 (primary human Schwann cells); assay: drug sensitivity score (DSS, CellTox-Green cytotoxicity, 72 h) (DSS (dimensionless)); higher = more cytotoxic; extreme values may be limits of the assay
Procedure, shortened: (§2)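 For 72 h at 37 °C, MPNST cell lines and primary human Schwann cells were exposed in 384-well plates to five 10-fold compound dilutions. CellTox-Green, added before seeding at a final 1:1000 dilution, gave fluorescence from DNA released by disrupted cells. Signals were scaled to vehicle and positive-control wells, cultures failing plate quality control were left out, and four-parameter logistic fits were applied. Relative IC50 and drug sensitivity score were derived from the fits, with IC50 censored at the top concentration.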

[11] = test system: HSC1 (primary human Schwann cells); assay: as above
Procedure, shortened: as §2

STS26T [12] = assay: as above
Procedure, shortened: as §2

S1507-2 [13] = assay: as above
Procedure, shortened: as §2

HS-PSS [14] = assay: as above
Procedure, shortened: as §2

ST8814 [15] = assay: as above
Procedure, shortened: as §2

[16] = test system: HSC2 (primary human Schwann cells); assay: % inhibition of CellTiter-Glo viability at highest tested concentration (72 h), relative to DMSO and benzethonium chloride controls; higher = more inhibition
Procedure, shortened: as §1

[17] = test system: HSC1 (primary human Schwann cells); assay: as above
Procedure, shortened: as §1

HS-Sch-2 [18] = assay: as above
Procedure, shortened: as §1

S462 [19] = assay: as above
Procedure, shortened: as §1

STS26T [20] = assay: as above
Procedure, shortened: as §1

S1507-2 [21] = assay: as above
Procedure, shortened: as §1

YST-1 [22] = assay: as above
Procedure, shortened: as §1

HS-PSS [23] = assay: as above
Procedure, shortened: as §1

ST8814 [24] = assay: as above
Procedure, shortened: as §1

In the case of `CNC(=O)c1ccccc1Sc1ccc2c(/C=C/c3ccccn3)n[nH]c2c1` [Axitinib] (max concentration tested 10000 nM), the drug sensitivity score [1] is reported as 6.51, the drug sensitivity score [2] is reported as 7.23 and the drug sensitivity score (HS-Sch-2 [3]) is reported as 6.01. For the same compound, the drug sensitivity score (S462 [4]) was 6.12 ± 0.37, the drug sensitivity score (STS26T [5]) was 5.81 and the drug sensitivity score (S1507-2 [6]) was 4.27 ± 3.4. The drug sensitivity score (YST-1 [7]) was 4.01, the drug sensitivity score (HS-PSS [8]) was 2.26 and the drug sensitivity score (ST8814 [9]) was 5.17. The drug sensitivity score [10] was 0.0899, the drug sensitivity score [11] was 1.46 and the drug sensitivity score (STS26T [12]) was 6.29. It also gave a drug sensitivity score (S1507-2 [13]) of 1.12 ± 1.1, a drug sensitivity score (HS-PSS [14]) of 0 and a drug sensitivity score (ST8814 [15]) of 0.581. The “% inhibition” value [16] was 53.8%, the “% inhibition” value [17] was 66.9% and the “% inhibition” value (HS-Sch-2 [18]) was 67.8%. The “% inhibition” value (S462 [19]) was 52.1 ± 6.1%, the “% inhibition” value (STS26T [20]) was 61.1% and the “% inhibition” value (S1507-2 [21]) was 38.5 ± 19%. For the same compound, the “% inhibition” value (YST-1 [22]) was 39.9%, the “% inhibition” value (HS-PSS [23]) was 38% and the “% inhibition” value (ST8814 [24]) was 52.7%.

For `Cc1cc2c(C(C)C)c(O)c(O)c(C=O)c2c(O)c1-c1c(C)cc2c(C(C)C)c(O)c(O)c(C=O)c2c1O` [AT 101] (max concentration tested 100000 nM), the drug sensitivity score [1] was 20.2, the drug sensitivity score [2] was 16.2 and the drug sensitivity score (HS-Sch-2 [3]) was 15.1. The drug sensitivity score (S462 [4]) was 16 ± 1.1, the drug sensitivity score (STS26T [5]) was 11.8 and the drug sensitivity score (S1507-2 [6]) was 8.69 ± 1.2. The drug sensitivity score (YST-1 [7]) was 15.2, the drug sensitivity score (HS-PSS [8]) was 9.43 and the drug sensitivity score (ST8814 [9]) was 12.6. It also gave a drug sensitivity score [10] of 0, a drug sensitivity score [11] of 4.09 and a drug sensitivity score (STS26T [12]) of 0. It also gave a drug sensitivity score (S1507-2 [13]) of 0, a drug sensitivity score (HS-PSS [14]) of 2.34 and a drug sensitivity score (ST8814 [15]) of 0.0013. For the same compound, the “% inhibition” value [16] was 93.6%, the “% inhibition” value [17] was 94.7% and the “% inhibition” value (HS-Sch-2 [18]) was 101%. For the same compound, the “% inhibition” value (S462 [19]) was 95.03 ± 0.8%, the “% inhibition” value (STS26T [20]) was 96.6% and the “% inhibition” value (S1507-2 [21]) was 95.6 ± 1.6%. The “% inhibition” value (YST-1 [22]) was 101%, the “% inhibition” value (HS-PSS [23]) was 101% and the “% inhibition” value (ST8814 [24]) was 95.4%.

With `CN(C)CCOc1ccc(/C(=C(/CCCl)c2ccccc2)c2ccccc2)cc1` [Toremifene] (max concentration tested 10000 nM) the drug sensitivity score [1] was 3.28, the drug sensitivity score [2] was 1.48 and the drug sensitivity score (HS-Sch-2 [3]) was 1.63. The drug sensitivity score (S462 [4]) was 0.537 ± 0.16, the drug sensitivity score (STS26T [5]) was 0.998 and the drug sensitivity score (S1507-2 [6]) was 1.26 ± 0.65. It also gave a drug sensitivity score (YST-1 [7]) of 0.84, a drug sensitivity score (HS-PSS [8]) of 2.31 and a drug sensitivity score (ST8814 [9]) of 1.19. The drug sensitivity score [10] was 0, the drug sensitivity score [11] was 0 and the drug sensitivity score (STS26T [12]) was 0.141. For the same compound, the drug sensitivity score (S1507-2 [13]) was 1.36 ± 0.28, the drug sensitivity score (HS-PSS [14]) was 0 and the drug sensitivity score (ST8814 [15]) was 5.11. The “% inhibition” value [16] was 55.6%, the “% inhibition” value [17] was 21.8% and the “% inhibition” value (HS-Sch-2 [18]) was 37.2%. For the same compound, the “% inhibition” value (S462 [19]) was 22.3 ± 3%, the “% inhibition” value (STS26T [20]) was 27.1% and the “% inhibition” value (S1507-2 [21]) was 32.2 ± 11%. The “% inhibition” value (YST-1 [22]) was 26.3%, the “% inhibition” value (HS-PSS [23]) was 48.1% and the “% inhibition” value (ST8814 [24]) was 34.5%.

For `CNC(=O)c1ccc(N2C(=S)N(c3cnc(C#N)c(C(F)(F)F)c3)C(=O)C23CCC3)cc1F` [ARN 509] (max concentration tested 10000 nM), the drug sensitivity score [1] was 0, the drug sensitivity score [2] was 0 and the drug sensitivity score (HS-Sch-2 [3]) was 0. It also gave a drug sensitivity score (S462 [4]) of 0, a drug sensitivity score (STS26T [5]) of 0 and a drug sensitivity score (S1507-2 [6]) of 0. The drug sensitivity score (YST-1 [7]) was 0, the drug sensitivity score (HS-PSS [8]) was 2.56 and the drug sensitivity score (ST8814 [9]) was 0. The drug sensitivity score [10] was 0, the drug sensitivity score [11] was 0 and the drug sensitivity score (STS26T [12]) was 0.407. The drug sensitivity score (S1507-2 [13]) was 0.0953 ± 0.14, the drug sensitivity score (HS-PSS [14]) was 0 and the drug sensitivity score (ST8814 [15]) was 0. The “% inhibition” value [16] was -11.5%, the “% inhibition” value [17] was -4.96% and the “% inhibition” value (HS-Sch-2 [18]) was 3.75%. For the same compound, the “% inhibition” value (S462 [19]) was 5.15 ± 0.46%, the “% inhibition” value (STS26T [20]) was 2.87% and the “% inhibition” value (S1507-2 [21]) was 1.5 ± 14%. For the same compound, the “% inhibition” value (YST-1 [22]) was 5.31%, the “% inhibition” value (HS-PSS [23]) was 11.9% and the “% inhibition” value (ST8814 [24]) was 9.08%.

`CC(C)(C)c1nc(-c2cccc(NS(=O)(=O)c3c(F)cccc3F)c2F)c(-c2ccnc(N)n2)s1` [Dabrafenib] (max concentration tested 2500 nM) showed a drug sensitivity score [1] of 5.89, a drug sensitivity score [2] of 4.42 and a drug sensitivity score (HS-Sch-2 [3]) of 0.66. The drug sensitivity score (S462 [4]) was 1.99 ± 0.58, the drug sensitivity score (STS26T [5]) was 3.99 and the drug sensitivity score (S1507-2 [6]) was 0.291 ± 0.41. It also gave a drug sensitivity score (YST-1 [7]) of 0.2, a drug sensitivity score (HS-PSS [8]) of 0.78 and a drug sensitivity score (ST8814 [9]) of 1.19. The drug sensitivity score [10] was 0.888, the drug sensitivity score [11] was 0.888 and the drug sensitivity score (STS26T [12]) was 0. For the same compound, the drug sensitivity score (S1507-2 [13]) was 0, the drug sensitivity score (HS-PSS [14]) was 0.89 and the drug sensitivity score (ST8814 [15]) was 0. For the same compound, the “% inhibition” value [16] was 31.7%, the “% inhibition” value [17] was 39.9% and the “% inhibition” value (HS-Sch-2 [18]) was 24.5%. The “% inhibition” value (S462 [19]) was 35.5 ± 1.5%, the “% inhibition” value (STS26T [20]) was 31.1% and the “% inhibition” value (S1507-2 [21]) was 17.6 ± 9.1%. For the same compound, the “% inhibition” value (YST-1 [22]) was 17.6%, the “% inhibition” value (HS-PSS [23]) was 26.6% and the “% inhibition” value (ST8814 [24]) was 33%.

Work on `C[C@]1(c2nc3c(C(N)=O)cccc3[nH]2)CCCN1` [Veliparib] (max concentration tested 10000 nM) yielded a drug sensitivity score [1] of 0.954, a drug sensitivity score [2] of 0.338 and a drug sensitivity score (HS-Sch-2 [3]) of 0. The drug sensitivity score (S462 [4]) was 0.0431 ± 0.061, the drug sensitivity score (STS26T [5]) was 0 and the drug sensitivity score (S1507-2 [6]) was 1.93 ± 2.7. It also gave a drug sensitivity score (YST-1 [7]) of 4.89, a drug sensitivity score (HS-PSS [8]) of 0 and a drug sensitivity score (ST8814 [9]) of 0. For the same compound, the drug sensitivity score [10] was 0, the drug sensitivity score [11] was 0 and the drug sensitivity score (STS26T [12]) was 0. For the same compound, the drug sensitivity score (S1507-2 [13]) was 0, the drug sensitivity score (HS-PSS [14]) was 0 and the drug sensitivity score (ST8814 [15]) was 0. The “% inhibition” value [16] was 18.2%, the “% inhibition” value [17] was 14.6% and the “% inhibition” value (HS-Sch-2 [18]) was 2.46%. For the same compound, the “% inhibition” value (S462 [19]) was 12 ± 3.7%, the “% inhibition” value (STS26T [20]) was 10.6% and the “% inhibition” value (S1507-2 [21]) was 10.9 ± 5.5%. The “% inhibition” value (YST-1 [22]) was 49%, the “% inhibition” value (HS-PSS [23]) was 10% and the “% inhibition” value (ST8814 [24]) was 9.88%.

Work on `CN(c1ccccc1CNc1nc(Nc2ccc3c(c2)CC(=O)N3)ncc1C(F)(F)F)S(C)(=O)=O` (max concentration tested 10000 nM) yielded a drug sensitivity score [1] of 13.8, a drug sensitivity score [2] of 14.5 and a drug sensitivity score (HS-Sch-2 [3]) of 6.95. The drug sensitivity score (S462 [4]) was 11.5 ± 0.24, the drug sensitivity score (STS26T [5]) was 9.12 and the drug sensitivity score (S1507-2 [6]) was 7.1 ± 0.82. It also gave a drug sensitivity score (YST-1 [7]) of 10.6, a drug sensitivity score (HS-PSS [8]) of 5.97 and a drug sensitivity score (ST8814 [9]) of 7.26. For the same compound, the drug sensitivity score [10] was 1.33, the drug sensitivity score [11] was 1.33 and the drug sensitivity score (STS26T [12]) was 6.59. The drug sensitivity score (S1507-2 [13]) was 2.52 ± 0.6, the drug sensitivity score (HS-PSS [14]) was 0.56 and the drug sensitivity score (ST8814 [15]) was 3.58. For the same compound, the “% inhibition” value [16] was 84%, the “% inhibition” value [17] was 78.8% and the “% inhibition” value (HS-Sch-2 [18]) was 101%. The “% inhibition” value (S462 [19]) was 100.3 ± 0.78%, the “% inhibition” value (STS26T [20]) was 95.3% and the “% inhibition” value (S1507-2 [21]) was 71.3 ± 1.1%. For the same compound, the “% inhibition” value (YST-1 [22]) was 100%, the “% inhibition” value (HS-PSS [23]) was 83.9% and the “% inhibition” value (ST8814 [24]) was 71.9%.
